The supplement of paper PMC10307832

Legend:
Test in all cases: relative viability (nuclei count vs DMSO), 5 days (fraction); higher = more cells survive
Vemurafenib + Alpelisib = compound: CCCS(=O)(=O)Nc1ccc(F)c(C(=O)c2c[nH]c3ncc(-c4ccc(Cl)cc4)cc23)c1F [Vemurafenib] + Cc1nc(NC(=O)N2CCC[C@H]2C(N)=O)sc1-c1ccnc(C(C)(C)C(F)(F)F)c1 [Alpelisib] (partner 2 µM)
Outline: (§1)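 Lung cancer cell lines in 1536-well plates got either a single drug or a fixed anchor-drug dose together with five library-drug doses (not always all listed) in √10 steps, by pin tool, on the day after seeding. Nuclei were counted after 5 days, and relative viability is the treated-to-vehicle ratio of nuclei counts. Values are medians of duplicate plates.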

OSI-027 + Pictilisib = compound: COc1cccc2cc(-c3nc([C@H]4CC[C@H](C(=O)O)CC4)n4ncnc(N)c34)[nH]c12 [OSI-027] + CS(=O)(=O)N1CCN(Cc2cc3nc(-c4cccc5[nH]ncc45)nc(N4CCOCC4)c3s2)CC1 [Pictilisib] (partner 1 µM)
Outline: as §1

Alpelisib + Trametinib = compound: Cc1nc(NC(=O)N2CCC[C@H]2C(N)=O)sc1-c1ccnc(C(C)(C)C(F)(F)F)c1 [Alpelisib] + CC(=O)Nc1cccc(-n2c(=O)n(C3CC3)c(=O)c3c(Nc4ccc(I)cc4F)n(C)c(=O)c(C)c32)c1 [Trametinib] (partner 0.02 µM)
Outline: as §1

Alpelisib + Pemetrexed = compound: Cc1nc(NC(=O)N2CCC[C@H]2C(N)=O)sc1-c1ccnc(C(C)(C)C(F)(F)F)c1 [Alpelisib] + Nc1nc2[nH]cc(CCc3ccc(C(=O)N[C@@H](CCC(=O)O)C(=O)O)cc3)c2c(=O)[nH]1 [Pemetrexed] (partner 0.2 µM)
Outline: as §1

Cell Line | relative viability (Vemurafenib + Alpelisib; first compound 0.03162 µM) | relative viability (Vemurafenib + Alpelisib; first compound 0.1 µM) | relative viability (Vemurafenib + Alpelisib; first compound 0.3162 µM) | relative viability (Vemurafenib + Alpelisib; first compound 1 µM) | relative viability (OSI-027 + Pictilisib; first compound 0.01 µM) | relative viability (OSI-027 + Pictilisib; first compound 0.03162 µM) | relative viability (OSI-027 + Pictilisib; first compound 0.1 µM) | relative viability (OSI-027 + Pictilisib; first compound 0.3162 µM) | relative viability (OSI-027 + Pictilisib; first compound 1 µM) | relative viability (Alpelisib + Trametinib; first compound 0.04 µM) | relative viability (Alpelisib + Trametinib; first compound 0.1265 µM) | relative viability (Alpelisib + Trametinib; first compound 0.4 µM) | relative viability (Alpelisib + Trametinib; first compound 1.265 µM) | relative viability (Alpelisib + Trametinib; first compound 4 µM) | relative viability (Alpelisib + Pemetrexed; first compound 0.04 µM) | relative viability (Alpelisib + Pemetrexed; first compound 0.1265 µM) | relative viability (Alpelisib + Pemetrexed; first compound 0.4 µM) | relative viability (Alpelisib + Pemetrexed; first compound 1.265 µM) | relative viability (Alpelisib + Pemetrexed; first compound 4 µM)
NCI-H2085 | 0.956 | 0.826 | 0.902 | 1 | 0.436 | 0.367 | 0.483 | 0.33 | 0.323 | 0.57 | 0.468 | 0.496 | 0.495 | 0.338 | 0.848 | 0.847 | 0.86 | 0.865 | 0.803
NCI-H2087 | 1.08 | 1.02 |  | 1.07 | 0.794 | 0.787 | 0.686 | 0.523 | 0.329 | 0.183 | 0.174 | 0.195 | 0.163 | 0.164 | 0.634 | 0.625 | 0.679 | 0.65 | 0.606
NCI-H2126 | 0.718 | 0.709 | 0.758 | 0.789 | 0.519 | 0.487 | 0.455 | 0.419 | 0.407 | 0.545 | 0.504 | 0.526 | 0.416 | 0.381 | 0.686 | 0.752 | 0.674 | 0.584 | 0.509
NCI-H2170 | 0.735 | 0.301 | 0.692 | 0.712 | 0.284 | 0.295 | 0.245 | 0.266 | 0.258 | 0.91 | 0.857 | 0.921 | 0.666 | 0.549 | 0.277 | 0.23 | 0.281 | 0.29 | 0.265
NCI-H2228 | 0.964 | 0.752 | 0.905 | 0.627 | 0.412 | 0.281 | 0.474 |  | 0.249 | 0.415 | 0.536 | 0.399 | 0.314 | 0.123 | 0.35 | 0.228 | 0.39 | 0.272 | 0.319
NCI-H2347 | 1.01 | 1.02 | 0.757 | 1.04 | 0.559 | 0.589 | 0.411 | 0.324 | 0.313 | 0.29 | 0.285 | 0.394 | 0.244 | 0.232 | 0.459 | 0.418 | 0.442 | 0.425 | 0.405
NCI-H2405 | 0.708 | 0.675 |  | 0.785 | 0.406 | 0.345 | 0.292 | 0.228 | 0.242 | 0.509 | 0.641 | 0.549 | 0.369 | 0.381 | 1.08 | 0.975 | 1.02 | 0.814 | 0.571
NCI-H3122 | 0.814 | 0.761 | 0.896 | 0.862 | 0.603 | 0.584 | 0.513 | 0.317 | 0.258 | 0.201 | 0.221 | 0.172 | 0.181 | 0.136 | 0.208 | 0.208 | 0.204 | 0.197 | 0.173
